Values of other authors as cited in patent US11596166B2 (priority 2017, dated 2023).

System: pellagra patients
Conditions: in vivo

O=C(O)c1cccnc1 [nicotinic acid]
acute mental symptoms: disappear rapidly, often over night | symptoms of pellagra: disappearance of many symptoms of the disease | time to blanching of acute erythematous dermal lesions with intact epithelium: ≤ 48 h | time to cessation of nausea and vomiting, normal bowel movements: 24 to 72 h | time to subsidence of redness and swelling of tongue, gums, mouth, throat, and vagina: 24 to 72 h
